The text below walks through data of patent publication US20240246941A1, “SUBSTITUTED 4-(3-AMINOPROP-1-YL)AMINOQUINOLINE ANALOGS AS MODULATORS OF MELANOMA-ASSOCIATED ANTIGEN 11 UBIQUITIN LIGASE” (ST. JUDE CHILDREN'S RESEARCH HOSPITAL, INC., priority 2020, published 2024).

SMILES strings stand for the structures.

MAGE-A11:PCF11, sequence (P43364 218-429): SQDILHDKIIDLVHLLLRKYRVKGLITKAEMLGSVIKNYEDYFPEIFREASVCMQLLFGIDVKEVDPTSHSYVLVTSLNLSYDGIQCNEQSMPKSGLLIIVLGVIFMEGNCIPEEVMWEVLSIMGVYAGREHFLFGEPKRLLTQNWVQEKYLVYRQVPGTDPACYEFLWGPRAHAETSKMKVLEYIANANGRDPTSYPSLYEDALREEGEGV

The first assay addresses MAGE-A11:PCF11 (Homo sapiens (Human), UniProt P43364). As to the kind of experiment: TR-FRET single point screening at 15 μM. Set-up: unit not given here. Format: binding. To be noted: single point TR-FRET screening at 15 μM against MAGE-A11:PCF11. An outline of the steps: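 Competition TR-FRET: compounds at final 15 μM mixed with 200 nM FAM-PCF11_4, 5 nM GST-MAGEA11 and 5 nM Tb-anti-GST in Tris pH 7.5/MgCl2/BSA/DTT buffer, room temperature, 90 min. Emission ratio 520/490 nm (340 nm excitation) expressed as % inhibition relative to positive and negative controls.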
`CCCCCN(CCCCC)CC(=O)Nc1c2c(nc3ccccc13)CCC2` [SJ000487033] gave a TR-FRET signal of −68.07.

`COC(=O)CN1CCN(c2cc(C)nc3ccccc23)C(C)C1=O` (stereo not drawn) [SJ000516812] came in with a TR-FRET signal of 3.503.

Compound `Clc1ccc2c(N3CCN(CCCN4CCN(c5ccnc6cc(Cl)ccc56)CC4)CC3)ccnc2c1` [SJ000518980] yielded a TR-FRET signal of −2.989.

With `Cc1[nH]cnc1CN(CCCCNc1ccnc2cc(Cl)ccc12)Cc1ccccc1` [SJ000520428], the TR-FRET signal is listed as 15.11. Consider `COC(=O)CCCCCN(CCCCNc1ccnc2cc(Cl)ccc12)Cc1ccccc1` [SJ000520432], for which the TR-FRET signal was determined as 23.58. In the case of `Clc1ccc2c(NCCCCN(Cc3ccccc3)Cc3ccc4[nH]ccc4c3)ccnc2c1` [SJ000520434], the TR-FRET signal was 69.44.

As to `Cn1ccnc1CN(CCCCNc1ccnc2cc(Cl)ccc12)Cc1ccccc1` [SJ000520435], the TR-FRET signal was determined as 5.888. Regarding `Clc1ccc2c(NCCCCN(Cc3ccccc3)Cc3cccc4c3OCO4)ccnc2c1` [SJ000520436], the TR-FRET signal turned out to be 21.65.

`COc1ccc(CN(CCCCNc2ccnc3cc(Cl)ccc23)Cc2ccccc2)cc1F` [SJ000520438] came in with a TR-FRET signal of 13.15. Consider `Cn1cc(CN(CCCCNc2ccnc3cc(Cl)ccc23)Cc2ccccc2)c2ccccc21` [SJ000520440], for which the TR-FRET signal is on record as −14.35. Turning to `COc1ccc(F)c(CN(CCCCNc2ccnc3cc(Cl)ccc23)Cc2ccccc2)c1` [SJ000520441], the TR-FRET signal was 14.55. On the same count and under the same terms, then `CCc1ccc(CN(CCCCNc2ccnc3cc(Cl)ccc23)Cc2ccccc2)cc1` [SJ000520443], with 29.91; and `COc1ccc(C(F)(F)F)cc1CN(CCCCNc1ccnc2cc(Cl)ccc12)Cc1ccccc1` [SJ000520444], with 31.82. `Clc1ccc2c(NCCCCN(Cc3ccccc3)Cc3csc4ccccc34)ccnc2c1` [SJ000520446] showed a TR-FRET signal of 33.98.

In turn, `COc1ccc(OC(F)(F)F)cc1CN(CCCCNc1ccnc2cc(Cl)ccc12)Cc1ccccc1` [SJ000520447] gave a TR-FRET signal of 26.66. In turn, `Clc1ccc2c(NCCCCN(Cc3ccccc3)Cc3nccs3)ccnc2c1` [SJ000520448] came in with a TR-FRET signal of −1.698. Compound `Cc1ccc(F)cc1CN(CCCCNc1ccnc2cc(Cl)ccc12)Cc1ccccc1` [SJ000520449] registered a TR-FRET signal of 42.32. Same read-out and setting: then `FC(F)(F)Oc1ccc(CN(CCCCNc2ccnc3cc(Cl)ccc23)Cc2ccccc2)cc1` [SJ000520451], with 39.87; and `Clc1ccc2c(NCCCCN(Cc3ccccc3)Cc3cccnc3Br)ccnc2c1` [SJ000520453], with 2.377; and `FC(F)(F)c1cccc(CN(CCCCNc2ccnc3cc(Cl)ccc23)Cc2ccccc2)c1` [SJ000520455], with 26.38.

In turn, `Cc1csc(CN(CCCCNc2ccnc3cc(Cl)ccc23)Cc2ccccc2)n1` [SJ000520456] came in with a TR-FRET signal of −12.86. In turn, `FC(F)(F)Oc1cccc(CN(CCCCNc2ccnc3cc(Cl)ccc23)Cc2ccccc2)c1` [SJ000520457] returned a TR-FRET signal of 33.31. Regarding `FC(F)(F)Oc1ccccc1CN(CCCCNc1ccnc2cc(Cl)ccc12)Cc1ccccc1` [SJ000520459], the TR-FRET signal turned out to be 30.86. `Fc1cccc(C(F)(F)F)c1CN(CCCCNc1ccnc2cc(Cl)ccc12)Cc1ccccc1` [SJ000520465]: the TR-FRET signal amounted to 28.75.

For the compound `FC(F)(F)c1cc(CN(CCCCNc2ccnc3cc(Cl)ccc23)Cc2ccccc2)ccc1Cl` [SJ000520466], the TR-FRET signal is 25.28. Compound `COc1ccc2nc3cc(Cl)ccc3c(NCCCNCc3ccc4[nH]ccc4c3)c2c1` [SJ000520914] showed a TR-FRET signal of −184.2.

In turn, `COc1ccc2nc3cc(Cl)ccc3c(NCCCNCc3c(F)cccc3OC)c2c1` [SJ000520915] yielded a TR-FRET signal of −298.8. Take `COc1ccc2nc3cc(Cl)ccc3c(NCCCNCc3ccoc3)c2c1` [SJ000520916]: the TR-FRET signal is −299.4. Still for that read-out and setting: for `CCCN(CCC)CCCNc1c2ccc(Cl)cc2nc2ccc(OC)cc12` [SJ000520917] the value was −288.2.

The assay is the same for the next values; noted with them: single point TR-FRET screening of quinoline compounds against MAGE-A11:PCF11; 15 μM.
In turn, `COC(=O)CCCCCN(CCCNc1ccnc2cc(Cl)ccc12)Cc1ccccc1` [SJ000520429] displayed a TR-FRET signal of 17.14. `Clc1ccc2c(NCCCN(Cc3ccccc3)Cc3ccc4[nH]ccc4c3)ccnc2c1` [SJ000520430] showed a TR-FRET signal of 66.43. Same read-out and setting: for `Cn1ccnc1CN(CCCNc1ccnc2cc(Cl)ccc12)Cc1ccccc1` [SJ000520431] the value was 15.36; for `Clc1ccc2c(NCCCN(Cc3ccccc3)Cc3c[nH]c4ccccc34)ccnc2c1` [SJ000520433], 40.19; for `COc1ccc(CN(CCCNc2ccnc3cc(Cl)ccc23)Cc2ccccc2)cc1F` [SJ000520437], 23.65. The same measure, in the same setting: for `Cn1cc(CN(CCCNc2ccnc3cc(Cl)ccc23)Cc2ccccc2)c2ccccc21` [SJ000520439] the value was −9.311; for `CCc1ccc(CN(CCCNc2ccnc3cc(Cl)ccc23)Cc2ccccc2)cc1` [SJ000520442], 18.89. For the compound `COc1ccc(F)c(CN(CCCNc2ccnc3cc(Cl)ccc23)Cc2ccccc2)c1` [SJ000520445], the TR-FRET signal is listed as 4.762. On to `COc1ccc(C(F)(F)F)cc1CN(CCCNc1ccnc2cc(Cl)ccc12)Cc1ccccc1` [SJ000520450], for which the TR-FRET signal amounted to 23.18. In turn, `COc1ccc(OC(F)(F)F)cc1CN(CCCNc1ccnc2cc(Cl)ccc12)Cc1ccccc1` [SJ000520452] returned a TR-FRET signal of 20.44.

For `Clc1ccc2c(NCCCN(Cc3ccccc3)Cc3csc4ccccc34)ccnc2c1` [SJ000520454], the TR-FRET signal is recorded as 28.14. As for `Cc1ccc(F)cc1CN(CCCNc1ccnc2cc(Cl)ccc12)Cc1ccccc1` [SJ000520458], the TR-FRET signal was found to be 29.77. For `FC(F)(F)Oc1ccc(CN(CCCNc2ccnc3cc(Cl)ccc23)Cc2ccccc2)cc1` [SJ000520460], the TR-FRET signal stood at 25.05. In turn, `Clc1ccc2c(NCCCN(Cc3ccccc3)Cc3cc4ccccc4o3)ccnc2c1` [SJ000520461] came in with a TR-FRET signal of 5.6.

`Clc1ccc2c(NCCCN(Cc3ccccc3)Cc3cccnc3Br)ccnc2c1` [SJ000520462]: the TR-FRET signal is recorded as 9.715. The compound `Cc1csc(CN(CCCNc2ccnc3cc(Cl)ccc23)Cc2ccccc2)n1` [SJ000520463] returned a TR-FRET signal of −10.47. In turn, `FC(F)(F)Oc1cccc(CN(CCCNc2ccnc3cc(Cl)ccc23)Cc2ccccc2)c1` [SJ000520464] displayed a TR-FRET signal of 27.78.

`Fc1cccc(C(F)(F)F)c1CN(CCCNc1ccnc2cc(Cl)ccc12)Cc1ccccc1` [SJ000520467] showed a TR-FRET signal of 22.01. `CCCN(CCCNc1ccnc2cc(C(F)(F)F)ccc12)Cc1c[nH]c2ccccc12` [SJ000520468] yielded a TR-FRET signal of 16.16. `CCCN(CCCNc1ccnc2cc(C(F)(F)F)ccc12)Cc1cn(C)c2ccccc12` [SJ000520469] yielded a TR-FRET signal of 25.54. For `CCCN(CCCNc1ccnc2cc(C(F)(F)F)ccc12)Cc1ccccc1OC(F)(F)F` [SJ000520470], the TR-FRET signal came out at 5.934. In turn, `CCCN(CCCNc1ccnc2cc(C(F)(F)F)ccc12)Cc1cccc(C(F)(F)F)c1` [SJ000520471] came in with a TR-FRET signal of 13.02. Still for that read-out and setting: for `CCCN(CCCNc1ccnc2cc(C(F)(F)F)ccc12)Cc1cccc2c1OCO2` [SJ000520472] the value was 14.62; for `CCCN(CCCNc1ccnc2cc(C(F)(F)F)ccc12)Cc1cccc(OC(F)(F)F)c1` [SJ000520473], 9.085; for `CCCN(CCCNc1ccnc2cc(C(F)(F)F)ccc12)Cc1ccc(OC(F)(F)F)cc1` [SJ000520474], 17.38. In turn, `CCCN(CCCNc1ccnc2cc(C(F)(F)F)ccc12)Cc1cc(F)ccc1OC` [SJ000520475] displayed a TR-FRET signal of 15.75. `CCCN(CCCNc1ccnc2cc(C(F)(F)F)ccc12)CCC(C)(C)C` [SJ000520476] returned a TR-FRET signal of 32.33. Turning to `CCCCN(CCC)CCCNc1ccnc2cc(C(F)(F)F)ccc12` [SJ000520477], the TR-FRET signal is 23.58. The compound `CCCN(CCCNc1ccnc2cc(C(F)(F)F)ccc12)Cc1cc(Br)cs1` [SJ000520478] showed a TR-FRET signal of −9.243. The compound `CCCN(CCCNc1ccnc2cc(C(F)(F)F)ccc12)Cc1cc2ccccc2o1` [SJ000520479] registered a TR-FRET signal of −20.41. For the compound `CCCN(CCCNc1ccnc2cc(C(F)(F)F)ccc12)Cc1cc(OC)ccc1F` [SJ000520480], the TR-FRET signal turned out to be 11.96. Same read-out and setting: then `CCCN(CCCNc1ccnc2cc(C(F)(F)F)ccc12)Cc1c(F)cccc1C(F)(F)F` [SJ000520481], with 11.47. Consider `CCCN(CCCNc1ccnc2cc(C(F)(F)F)ccc12)Cc1cc2ccccc2s1` [SJ000520482], for which the TR-FRET signal stood at 13.01. As for `CCCN(CCCNc1ccnc2cc(C(F)(F)F)ccc12)Cc1csc2ccccc12` [SJ000520483], the TR-FRET signal is reported as 19.45.

`CCCN(CCCNc1ccnc2cc(C(F)(F)F)ccc12)Cc1nc2ccccc2s1` [SJ000520484]: the TR-FRET signal worked out at 7.404.

In the case of `CCCN(CCCNc1ccnc2cc(C(F)(F)F)ccc12)Cc1cc(OC(F)(F)F)ccc1OC` [SJ000520485], the TR-FRET signal was determined as 5.6. In the case of `CCCN(CCCNc1ccnc2cc(C(F)(F)F)ccc12)Cc1cc(C(F)(F)F)ccc1OC` [SJ000520486], the TR-FRET signal worked out at 8.188. `O=[N+]([O-])c1ccc(CNCCCNc2ccnc3cc(Cl)ccc23)s1` [SJ000520912] returned a TR-FRET signal of 6.284. `Clc1ccc2c(NCCCNCc3ccoc3)ccnc2c1` [SJ000520913] came in with a TR-FRET signal of −11.15. Compound `CCCN(CCCNc1c2ccc(Cl)cc2nc2ccc(OC)cc12)Cc1ccncc1` [SJ000520918] had a TR-FRET signal of −1.797.
